Assay results from ChEMBL document CHEMBL5370685, “Novel 1,8-Naphthalimide Derivatives As Antitumor Agents and Potent Demethylase Inhibitors” (ACS Med Chem Lett, 2023).
The source made the active and inactive calls. The calls are words filed in the database; no cut-off is given here.

Tests used:
A549 [1] = experiment: Antiproliferative activity against human A549 cells assessed as inhibition of cell growth; format: functional, cell-based
[2] = Antiproliferative activity against human A549R cells assessed as inhibition of cell growth; format: functional, cell-based
NB-4 = experiment: Antiproliferative activity against human NB4 cells assessed as inhibition of cell growth; format: functional, cell-based
[3] = Cytotoxicity against HLF cells assessed as inhibition of cell growth; format: toxicity, cell-based; conditions: human
[4] = Antiproliferative activity against mouse A261 cells assessed as inhibition of cell growth; format: functional, cell-based
[5] = target: T1, Alpha-ketoglutarate-dependent dioxygenase FTO (Homo sapiens, UniProt Q9C0B1); experiment: Inhibition of human FTO assessed as reduction in enzyme-mediated demethylation of m6A-ssDNA at 12.5 uM incubated for 2 hrs by PAGE analysis
Target sequence in this assay (Q9C0B1 whole entry, looked up): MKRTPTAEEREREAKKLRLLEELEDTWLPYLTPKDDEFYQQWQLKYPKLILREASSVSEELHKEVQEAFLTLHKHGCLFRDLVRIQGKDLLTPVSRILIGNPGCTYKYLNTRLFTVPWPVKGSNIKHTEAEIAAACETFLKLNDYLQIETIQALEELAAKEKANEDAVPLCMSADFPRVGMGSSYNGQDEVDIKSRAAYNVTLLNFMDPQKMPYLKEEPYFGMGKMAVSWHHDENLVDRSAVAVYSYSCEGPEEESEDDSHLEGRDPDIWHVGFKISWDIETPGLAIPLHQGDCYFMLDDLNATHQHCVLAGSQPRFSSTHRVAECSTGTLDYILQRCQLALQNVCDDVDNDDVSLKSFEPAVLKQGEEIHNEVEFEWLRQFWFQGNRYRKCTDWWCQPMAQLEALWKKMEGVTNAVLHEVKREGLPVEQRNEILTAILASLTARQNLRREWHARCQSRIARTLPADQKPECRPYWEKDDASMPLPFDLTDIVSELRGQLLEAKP

[6] = target: T1, Alpha-ketoglutarate-dependent dioxygenase FTO; experiment: Inhibition of human FTO assessed as reduction in enzyme-mediated demethylation of m6A-ssDNA incubated for 2 hrs by PAGE analysis
Target sequence in this assay (Q9C0B1 whole entry): as the sequence (Q9C0B1 whole entry, looked up) above

[7] = Selectivity index, ratio of IC50 for cytotoxicity against HLF cells to IC50 for antiproliferative activity against human A549 cells; format: cell-based; conditions: HLF cells versus A549 cells, read-out: Ratio IC50
A549 [8] = experiment: Effect on FTO expression in human A549 cells at 3 to 9 uM incubated for 24 hrs by Western blot analysis; format: functional, cell-based; conditions: dose 3-9 µM
[9] = target: T1, Alpha-ketoglutarate-dependent dioxygenase FTO; experiment: Inhibition of FTO in human A549 cells assessed as upregulation of gammaH2AX protein expression at 3 to 9 uM incubated for 24 hrs by Western blot analysis; format: cell-based; conditions: dose 3-9 µM
Target sequence in this assay (Q9C0B1 whole entry, looked up): as above

[10] = target: T1, Alpha-ketoglutarate-dependent dioxygenase FTO; experiment: Inhibition of FTO in human A549 cells assessed as upregulation of p53 protein expression incubated for 24 hrs by Western blot analysis; format: cell-based; conditions: dose 3-9 µM
Target sequence in this assay (Q9C0B1 whole entry, looked up): as above

A549 [11] = experiment: Induction of autophagy in human A549 cells assessed as upregulation of LC3-II protein expression at 3 to 9 uM incubated for 24 hrs by Western blot analysis; format: functional, cell-based; conditions: dose 3-9 µM
A549 [12] = experiment: Induction of autophagy in human A549 cells assessed as downregulation of p62 protein expression at 3 to 9 uM incubated for 24 hrs by Western blot analysis; format: functional, cell-based; conditions: dose 3-9 µM
A549 [13] = experiment: Antiproliferative activity against human A549 cells cultured as 3D spheroids assessed as decrease in multicellular tumor spheroid size at 20 uM treated for 5 days by live-cell phase-contrast microscopy; format: functional, cell-based; conditions: time 5.0 day

Row | Structure (SMILES) | IC50 (A549 [1]) [µM] | IC50 [2] [µM] | IC50 (NB-4) [µM] | IC50 [3] [µM] | IC50 [4] [µM] | inhibition [5] | IC50 [6] [µM] | selectivity ratio [7] | Activity (A549 [8]) | inhibition [9] | inhibition [10] | Activity (A549 [11]) | Activity (A549 [12]) | Activity (A549 [13])
1 | CN(C)CCN1C(=O)c2cccc3cc(N)cc(c23)C1=O [AMONAFIDE] | 4.3 | 9.5 | 5.7 | 8.8 | 9.2 | – | – | – | – | – | – | – | – | –
2 | CNCCN1C(=O)c2cccc3cc(NC(=O)c4ccccn4)cc(c23)C1=O | 2.9 | 7.2 | 12.9 | – | 3.5 | – | – | – | – | – | – | – | – | –
3 | C#CCN(C)CCN1C(=O)c2cccc3cc(N)cc(c23)C1=O | > 20 | > 20 | > 20 | > 20 | > 20 | – | – | – | – | – | – | – | – | –
4 | CNCCN1C(=O)c2cccc3cc([N+](=O)[O-])cc(c23)C1=O | 2.8 | 6.2 | 7 | 6.9 | 2.5 | Active | 5.7 | 2.5 | inactive | Active | Dose-Dependent Effect | Active | Active | Active
5 | C=CC(=O)N(C)CCN1C(=O)c2cccc3cc(N)cc(c23)C1=O | > 20 | > 20 | > 20 | > 20 | > 20 | – | – | – | – | – | – | – | – | –
6 | C#CCN(C)CCN1C(=O)c2cccc3cc([N+](=O)[O-])cc(c23)C1=O | > 20 | > 20 | > 20 | > 20 | > 20 | – | – | – | – | – | – | – | – | –
7 | O=C(Nc1cc2c3c(cccc3c1)C(=O)N(CCN1C(=O)C=CC1=O)C2=O)c1ccccn1 | > 20 | > 20 | > 20 | – | > 20 | – | – | – | – | – | – | – | – | –
8 | C#CCCCCNCCN1C(=O)c2cccc3cc(NC(=O)c4ccccn4)cc(c23)C1=O | 4.7 | 9.5 | 9.8 | – | 5.3 | – | – | – | – | – | – | – | – | –
9 | C=CC(=O)N(C)CCN1C(=O)c2cccc3cc([N+](=O)[O-])cc(c23)C1=O | > 20 | > 20 | > 20 | > 20 | > 20 | – | – | – | – | – | – | – | – | –
10 | CN(C)CCN1C(=O)c2cccc3cc(NC(=O)c4ccccn4)cc(c23)C1=O | 2.8 | 4.5 | 1.5 | 9.9 | 3.3 | Active | 4.5 | 3.5 | inactive | Active | Dose-Dependent Effect | Active | Active | Active
11 | C#CCN(C)CCN1C(=O)c2cccc3cc(NC(=O)C=C)cc(c23)C1=O | > 20 | > 20 | 13.9 | > 20 | > 20 | – | – | – | – | – | – | – | – | –
12 | CN(C)CCN1C(=O)c2cccc3cc([N+](=O)[O-])cc(c23)C1=O [MITONAFIDE] | 1.5 | 1.8 | 3.4 | 2.8 | 2.8 | – | 34.8 | 1.9 | – | – | – | – | – | –
13 | NCCN1C(=O)c2cccc3cc(NC(=O)c4ccccn4)cc(c23)C1=O | 5.2 | 7.3 | 8.4 | – | 4.1 | – | – | – | – | – | – | – | – | –
14 | C#CCCC1(CCNCCN2C(=O)c3cccc4cc(NC(=O)c5ccccn5)cc(c34)C2=O)N=N1 | > 20 | > 20 | 10.6 | – | 8.5 | – | – | – | – | – | – | – | – | –
